Results on 27 compounds are retold here after patent US9422293B2 (priority 2006, dated 2016).

Usually IC50 stands for the point on the concentration scale where inhibition reaches its midpoint.

This experiment addresses rat TRPV1 (Rattus norvegicus (Rat), UniProt O35433). Conditions: read-out: Rat IC50.

Structures are written as SMILES. Counter-ions that a name gives are not always drawn. Like-named read-outs stand apart in the source and are kept apart here.

Sequence of rat TRPV1 (O35433 whole entry): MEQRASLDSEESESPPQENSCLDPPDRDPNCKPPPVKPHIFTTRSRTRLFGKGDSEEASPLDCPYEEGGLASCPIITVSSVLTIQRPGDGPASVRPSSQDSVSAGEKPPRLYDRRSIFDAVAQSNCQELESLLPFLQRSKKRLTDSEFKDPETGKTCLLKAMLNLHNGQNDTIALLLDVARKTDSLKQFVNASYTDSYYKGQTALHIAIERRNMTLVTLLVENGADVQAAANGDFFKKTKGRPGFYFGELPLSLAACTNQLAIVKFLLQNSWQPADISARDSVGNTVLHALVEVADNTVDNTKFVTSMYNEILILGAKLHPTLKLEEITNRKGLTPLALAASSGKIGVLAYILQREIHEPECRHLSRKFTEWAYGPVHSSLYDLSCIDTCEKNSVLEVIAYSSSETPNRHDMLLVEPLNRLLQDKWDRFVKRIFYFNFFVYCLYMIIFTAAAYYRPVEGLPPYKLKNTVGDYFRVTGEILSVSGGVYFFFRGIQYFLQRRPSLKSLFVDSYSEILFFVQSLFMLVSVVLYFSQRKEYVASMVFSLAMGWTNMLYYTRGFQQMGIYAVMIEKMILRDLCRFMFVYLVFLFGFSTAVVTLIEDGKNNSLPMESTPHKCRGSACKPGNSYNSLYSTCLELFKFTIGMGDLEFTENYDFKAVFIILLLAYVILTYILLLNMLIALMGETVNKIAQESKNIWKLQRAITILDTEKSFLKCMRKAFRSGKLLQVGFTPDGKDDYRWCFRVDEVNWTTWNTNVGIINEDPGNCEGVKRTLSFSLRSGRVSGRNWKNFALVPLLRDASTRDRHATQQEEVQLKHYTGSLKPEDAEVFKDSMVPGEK
Protocol: Biological Testing: Functional Assay: Block of Capsaicin-Induced Ca^2+ Influx A. Human Assay
Cells were passaged frequently, every 3-5 days, to avoid overgrowth, depletion of essential medium components, or acidic medium exposure. Cells were passaged using a brief wash in 0.05% trypsin with 1 mM EDTA, followed by dissociation in divalent-free phosphate-buffered saline (Hyclone #SH30028.02). […] The assay buffer was composed of 130 mM NaCl, 2 mM KCl, 2 mM MgCl2, 10 mM HEPES, 5 mM glucose, and either 2 mM or 20 μM CaCl2. On the day of the experiment, the culture medium was replaced with 2 mM calcium assay buffer using an automated plate washer (ELx405; Biotek, VT). […] After loading the cells, the dye solution was replaced with 50 μL/well of 20 μM calcium assay buffer using the ELx405 plate washer. Test compounds (50 μL/well) were added to the plate and incubated for 30 min. […] The IC50 values were determined. […] The contents of the wells were mixed 3 times (40 μL mix volume) immediately after the additions were made. Concentration dependence of block was determined by exposing each well of cells in duplicate rows of a 96 well plate to a serial dilution of test compound. The concentration series usually started at 10 μM with a three-fold serial decrement in concentration. The magnitude of the capsaicin response was determined by measuring the change in fluo3 fluorescence before and 100 seconds after the addition of the agonist. Data were analyzed using a non-linear regression program (Origin; OriginLab, MA). IC50 values shown are the average (mean) of the results obtained.
The assay was performed as described above, using HEK293 cells transfected with rat TRPV1 (rTRPV1/HEK293). […] IC50 values shown are the average (mean) of the results obtained.

On to `Cc1cc(C(F)(F)F)ccc1Nc1nc(SC2CCOC2C)nc2c1CCN(c1ncccc1C(F)(F)F)CC2` (stereo not drawn) [Example 368, 2,5-Anhydro-1,4-dideoxy-3-S-(4-{[2-methyl-4-(trifluoromethyl)phenyl]amino}-7-[3-(trifluoromethyl)pyridin-2-yl]-6,7,8,9-tetrahydro-5H-pyrimido[4,5-d]azepin-2-yl)-3-thiopentitol], for which the IC50 was 20 nM.

Consider `FC(F)(F)c1ccc(Nc2nc(N3CCCCC3)nc3c2CCN(c2ncccc2C(F)(F)F)CC3)cc1` [Example 39A, [2-Piperidin-1-yl-7-(3-trifluoromethyl-pyridin-2-yl)-6,7,8,9-tetrahydro-5H-pyrimido[4,5-d]azepin-4-yl]-(4-trifluoromethyl-phenyl)-amine hydrochloride salt], for which, where the note is “hydrochloride salt”, the IC50 amounted to 23 nM. For `FC(F)(F)c1ccc(Nc2nc(N3CCCCCC3)nc3c2CCN(c2ncccc2C(F)(F)F)CC3)nc1` [Example 194, 2-Azepan-1-yl-7-[3-(trifluoromethyl)pyridin-2-yl]-N-[5-(trifluoromethyl)pyridin-2-yl]-6,7,8,9-tetrahydro-5H-pyrimido[4,5-d]azepin-4-amine], the IC50 came to 70 nM. Consider `FC(F)(F)c1ccc(Nc2ncnc3c2CCN(c2cnc4ccccc4n2)CC3)cc1` [Example 29, (7-Quinoxalin-2-yl-6,7,8,9-tetrahydro-5H-pyrimido[4,5-d]azepin-4-yl)-(4-trifluoromethyl-phenyl)-amine], for which the IC50 was 340 nM. On to `CN(c1nc2c(c(Nc3ccc(C(F)(F)F)nc3)n1)CCN(c1ncccc1C(F)(F)F)CC2)C1CCCCC1` [Example 275, N^2-Cyclohexyl-N^2-methyl-7-[3-(trifluoromethyl)pyridin-2-yl]-N^4-[6-(trifluoromethyl)pyridin-3-yl]-6,7,8,9-tetrahydro-5H-pyrimido[4,5-d]azepine-2,4-diamine], for which the IC50 is 190 nM.

Turning to `Cc1cc(C(F)(F)F)ccc1Nc1nc(S(C)(=O)=O)nc2c1CCN(c1ncccc1C(F)(F)F)CC2` [Example 209, 2-(Methylsulfonyl)-N-[2-methyl-4-(trifluoromethyl)phenyl]-7-[3-(trifluoromethyl)pyridin-2-yl]-6,7,8,9-tetrahydro-5H-pyrimido[4,5-d]azepin-4-amine], the IC50 worked out at 3450 nM. With `CC(=O)c1ccc(Nc2nc(N3CCCCC3)nc3c2CCN(c2ncccc2C(F)(F)F)CC3)cc1` [Example 156, 1-[4-({2-Piperidin-1-yl-7-[3-(trifluoromethyl)pyridin-2-yl]-6,7,8,9-tetrahydro-5H-pyrimido[4,5-d]azepin-4-yl}amino)phenyl]ethanone], the IC50 turned out to be 590 nM.

Regarding `CC(C)Sc1nc2c(c(Nc3ccc4c(c3)N(C)CCC4(C)C)n1)CCN(c1ncccc1C(F)(F)F)CC2` [Example 372, 2-[(1-Methylethyl)sulfanyl]-7-[3-(trifluoromethyl)pyridin-2-yl]-N-(1,4,4-trimethyl-1,2,3,4-tetrahydroquinolin-7-yl)-6,7,8,9-tetrahydro-5H-pyrimido[4,5-d]azepin-4-amine], the IC50 worked out at 330 nM.

For `CC(C)NS(=O)(=O)c1cccnc1N1CCc2nc(N3CCCCC3)nc(Nc3ccc(C(F)(F)F)cc3)c2CC1` [Example 300, N-(1-Methylethyl)-2-(2-piperidin-1-yl-4-{[4-(trifluoromethyl)phenyl]amino}-5,6,8,9-tetrahydro-7H-pyrimido[4,5-d]azepin-7-yl)pyridine-3-sulfonamide], the IC50 worked out at 2000 nM.

Consider `Cc1cc(C(F)(F)F)ccc1Nc1nc(SC2CCOC2C)nc2c1CCN(c1ncccc1C(F)(F)F)CC2` (stereo not drawn) [Example 369, 2,5-Anhydro-1,4-dideoxy-3-S-(4-{[2-methyl-4-(trifluoromethyl)phenyl]amino}-7-[3-(trifluoromethyl)pyridin-2-yl]-6,7,8,9-tetrahydro-5H-pyrimido[4,5-d]azepin-2-yl)-3-thiopentitol], for which the IC50 came out at 10 nM. As to `CC(C)(C)c1ccc(Nc2nc(-c3ccccc3)nc3c2CCN(c2ncccc2C(F)(F)F)CC3)cc1` [Example 6, (4-tert-Butyl-phenyl)-[2-phenyl-7-(3-trifluoromethyl-pyridin-2-yl)-6,7,8,9-tetrahydro-5H-pyrimido[4,5-d]azepin-4-yl]-amine], the IC50 amounted to 490 nM. Take `CC(C)c1nc2c(c(Nc3ccc(C(C)(C)O)cc3)n1)CCN(c1ncccc1C(F)(F)F)CC2` [Example 178, 2-[4-({2-(1-Methylethyl)-7-[3-(trifluoromethyl)pyridin-2-yl]-6,7,8,9-tetrahydro-5H-pyrimido[4,5-d]azepin-4-yl}amino)phenyl]propan-2-ol]: the IC50 is 110 nM. `CC(C)c1nc2c(c(Nc3ccc(C(F)(F)F)cc3)n1)CCN(c1ncccc1S(C)(=O)=O)CC2` [Example 36, [2-Isopropyl-7-(3-methanesulfonyl-pyridin-2-yl)-6,7,8,9-tetrahydro-5H-pyrimido[4,5-d]azepin-4-yl]-(4-trifluoromethyl-phenyl)-amine]: the IC50 was determined as 370 nM.

As for `CSc1nc2c(c(Nc3ccc(C(C)(C)C)cc3)n1)CCN(c1ncccc1C(F)(F)F)CC2` [Example 202, N-[4-(1,1-Dimethylethyl)phenyl]-2-(methylsulfanyl)-7-[3-(trifluoromethyl)pyridin-2-yl]-6,7,8,9-tetrahydro-5H-pyrimido[4,5-d]azepin-4-amine], the IC50 turned out to be 12400 nM. For the compound `COCc1nc2c(c(Nc3ccc(C(F)(F)F)c(Cl)c3)n1)CCN(c1ncccc1C(F)(F)F)CC2` [Example 80B, (3-Chloro-4-trifluoromethyl-phenyl)-[2-methoxymethyl-7-(3-trifluoromethyl-pyridin-2-yl)-6,7,8,9-tetrahydro-5H-pyrimido[4,5-d]azepin-4-yl]-amine trifluoroacetic acid salt], the IC50 came out at 130 nM. `OCC1CN(c2nc3c(c(Nc4ccc(C(F)(F)F)cc4)n2)CCN(c2ncccc2C(F)(F)F)CC3)CCO1` (stereo not drawn) [Example 271, [4-(4-{[4-(Trifluoromethyl)phenyl]amino}-7-[3-(trifluoromethyl)pyridin-2-yl]-6,7,8,9-tetrahydro-5H-pyrimido[4,5-d]azepin-2-yl)morpholin-2-yl]methanol]: the IC50 was 840 nM. For `CC(C)c1nc2c(c(NCc3ccc(C(F)(F)F)nc3)n1)CCN(c1ncccc1C(F)(F)F)CC2` [Example 116, 2-(1-Methylethyl)-7-[3-(trifluoromethyl)pyridin-2-yl]-N-{[6-(trifluoromethyl)pyridin-3-yl]methyl}-6,7,8,9-tetrahydro-5H-pyrimido[4,5-d]azepin-4-amine], the IC50 stood at 7030 nM. For the compound `FC(F)(F)c1ccc(Nc2nc(N3CCCCC3)nc3c2CCN(c2ncccc2C(F)(F)F)CC3)cc1Cl` [Example 233, N-[3-Chloro-4-(trifluoromethyl)phenyl]-2-piperidin-1-yl-7-[3-(trifluoromethyl)pyridin-2-yl]-6,7,8,9-tetrahydro-5H-pyrimido[4,5-d]azepin-4-amine trifluoroacetic acid salt], the IC50 amounted to 170 nM. As for `O=S(=O)(c1ccc(Nc2nc(SC3CCCCC3)nc3c2CCN(c2ncccc2C(F)(F)F)CC3)cc1)C(F)(F)F` [Example 360, 2-(Cyclohexylsulfanyl)-7-[3-(trifluoromethyl)pyridin-2-yl]-N-{4-[(trifluoromethyl)sulfonyl]phenyl}-6,7,8,9-tetrahydro-5H-pyrimido[4,5-d]azepin-4-amine], the IC50 came to 250 nM.

On to `CN(C)c1nc2c(c(Nc3ccc(C(F)(F)F)c(Cl)c3)n1)CCN(c1ncccc1C(F)(F)F)CC2` [Example 45, N^4-(3-Chloro-4-trifluoromethyl-phenyl)-N^2,N^2-dimethyl-7-(3-trifluoro-methyl-pyridin-2-yl)-6,7,8,9-tetrahydro-5H-pyrimido[4,5-d]azepine-2,4-diamine], for which the IC50 was determined as 90 nM. Regarding `CC(C)c1nc2c(c(Nc3ccc(C(F)(F)F)cc3)n1)CCN(c1ncc([N+](=O)[O-])cc1C(F)(F)F)CC2` [Example 291, 2-(1-Methylethyl)-7-[5-nitro-3-(trifluoromethyl)pyridin-2-yl]-N-[4-(trifluoromethyl)phenyl]-6,7,8,9-tetrahydro-5H-pyrimido[4,5-d]azepin-4-amine], the IC50 stood at 170 nM.

In the case of `CC(C)c1nc2c(c(NCCc3ccccc3F)n1)CCN(c1ncccc1C(F)(F)F)CC2` [Example 118, N-[2-(2-Fluorophenyl)ethyl]-2-(1-methylethyl)-7-[3-(trifluoromethyl)pyridin-2-yl]-6,7,8,9-tetrahydro-5H-pyrimido[4,5-d]azepin-4-amine], the IC50 is 500 nM.

As for `CSc1nc2c(c(Nc3ccc(C(F)(F)F)cc3C)n1)CCN(c1ncccc1C(F)(F)F)CC2` [Example 204, 2-(Methylsulfanyl)-N-[2-methyl-4-(trifluoromethyl)phenyl]-7-[3-(trifluoromethyl)pyridin-2-yl]-6,7,8,9-tetrahydro-5H-pyrimido[4,5-d]azepin-4-amine], the IC50 stood at 560 nM. On the same count and under the same terms, to `CN1CCCc2ccc(Nc3nc(OC4CCOCC4)nc4c3CCN(c3ncccc3C(F)(F)F)CC4)cc21` [Example 329, N-(1-Methyl-1,2,3,4-tetrahydroquinolin-7-yl)-2-(tetrahydro-2H-pyran-4-yloxy)-7-[3-(trifluoromethyl)pyridin-2-yl]-6,7,8,9-tetrahydro-5H-pyrimido[4,5-d]azepin-4-amine] belongs 120 nM; to `FC(F)(F)c1ccc(Nc2ncnc3c2CCN(c2ncccc2Cl)CC3)cc1` [Example 30, [7-(3-Chloro-pyridin-2-yl)-6,7,8,9-tetrahydro-5H-pyrimido[4,5-d]azepin-4-yl]-(4-trifluoromethyl-phenyl)-amine], 1300 nM. Take `COCCN(C)c1nc2c(c(Nc3ccc(C(F)(F)F)nc3)n1)CCN(c1ncccc1C(F)(F)F)CC2` [Example 228, N^2-Methyl-N^2-[2-(methyloxy)ethyl]-7-[3-(trifluoromethyl)pyridin-2-yl]-N^4-[6-(trifluoromethyl)pyridin-3-yl]-6,7,8,9-tetrahydro-5H-pyrimido[4,5-d]azepine-2,4-diamine trifluoroacetic acid salt]: the IC50 was 40 nM. Consider `FC1(F)CN(c2nc3c(c(Nc4ccc(C(F)(F)F)cc4)n2)CCN(c2ncccc2C(F)(F)F)CC3)C1` [Example 241, 2-(3,3-Difluoroazetidin-1-yl)-N-[4-(trifluoromethyl)phenyl]-7-[3-(trifluoromethyl)pyridin-2-yl]-6,7,8,9-tetrahydro-5H-pyrimido[4,5-d]azepin-4-amine], for which the IC50 amounted to 170 nM.
